This passage reports EC50 results from patent publication US20120128630A1, “1-(6 MEMBERS AZO-HETEROCYCLIC)-PYRROLIN-2-ONE COMPOUNDS AS INHIBITORS OF HEPATITIS C NS5B POLYMERASE, THE PHARAMACEUTICAL COMPOSITION THEREOF AND THEIR THERAPEUTIC USE” (priority 2009, published 2012).

In assay [1] the test system is HCV replicon Luc Neo ET. Briefly: Luc Neo ET Replicon assay. As to conditions: Table 3, titled RdRp enzyme assay results, EC50_Replicon LucneoET, 72 hours with compound, luciferase. It counts as cell-based, Hepatitis C virus. The procedure: Human Hepatoma Huh-7 cell line was maintained in DMEM/HAMF-12 supplemented with 10% SVF, 4 mM glutamine, […] Na pyruvate, 1% penistreptomycine. HCV replicon containing Huh-7 cell lines Huh-9.13 and Luc Neo ET (Reblikon) were maintained in DMEM supplemented with 10% SVF, 2 mM glutamine, and 1×NEAA, 100 U/ml penicillin, and 100 μg/ml streptomycine. Replicon cells were maintained in medium supplemented with 1 mg/ml G418 for replicon Huh-9.13 and 0.5 mg/ml for Luc Neo et replicon unless indicated otherwise. Huh-7 and HCV replicon cell lines were maintained at 37° C. and 5% CO2 in a humidified atmosphere. Cells were dissociated at sub confluence with trypsin EDTA 1×.
Replicon Luc Neo ET is a bicistronic expression constructs (Lohmann et al, 1999, Science 285, 110-113). In brief, the structural genes of the HCV genome were replaced by heterologous sequences; the gene encoding the neomycin phosphotransferase (NPT) and the internal ribosome entry site (IRES) of the encephalomyocarditis virus (EMCV). The bicistronic construct is therefore composed of the following elements: HCV-IRES nucleotides 1-389, the NPT gene, the EMCV-IRES directing translation of downstream HCV sequences from NS2 or NS3 up to the authentic 3′ end of the genome. HCV Polyprotein harbours the cell culture adaptive mutations E1202G, T1280I, K1846T. G418-resistance is only possible with cells containing high amounts of replicon.
Cells were dissociated the day before addition of compounds and seeded in 96 well-plates at a final concentration of 77 777.77 cells.ml^−1.well^−2 in 90 μl final volume of culture medium per well and were maintained at 37° C. and 5% CO2 in a humidified atmosphere for 24 hours. 10 μl of compounds to be tested were added 24 hours after seeding. Final concentration of DMSO was 1%. Cells were incubated in the presence of compounds for 72 hours after which expression of firefly luciferase reporter gene was quantified. Briefly, culture medium was removed and cells were lysed by addition of 100 μl of lysis buffer containing 125 mM Tris Phosphate ph 7.8, 10 mM EDTA, 5 mM DTT, 50% glycerol and 5% Triton. Plates were vortexed 10 min at 1300 rpm. Cell lysat was transferred in OpaqueWhite Assay 96 well Flat Bottom plates. 100 μl of luciferin solution 1× were added to each well. Luciferin solution contained 40 mM Tris Phosphate ph 7.8, 0.2 mM EDTA, 67 mM DTT, 2.14 mM MgCl2, 5.4 mM MgSO4, 4.7×10^−4 M luciferin, 5.3×10^−4 M ATP and 2.7×10^−4 M Acetyl co enzyme A. Luminescence was immediately measured with Berthold Microlumat Plus LB 96V luminometer with an integration of 0.5 sec Inhibition was calculated using the formula:
% inhibition=1−[(RLUsample−RLUbackground)/(RLUsignal−RLUbackground)]
(In antiviral work, replicon cells carry a viral genome segment that copies itself.)

For assay [2], the target named is T1, HCV NS5B genotype 1b (Hepatitis C virus genotype 1b, UniProt Q9WMX2).
T1 construct: The protein was expressed with a 21 amino acid C-terminal deletion to remove transmembrane domain; expressed in transfected cells; host or cells: Huh-7
The assay can be described thus: 3D-SCREEN assay (NS5B 3D-Screen platform, luciferase reporter gene). It counts as cell-based. An outline of the steps: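 Huh-7 cells transiently co-transfected with NS5BΔ21/Gal4-DBD, 3D-Sensor peptide I4/VP16 and firefly luciferase reporter. Compounds added 2 h after seeding, 1% DMSO final, 24 h incubation. Luciferase luminescence read; % inhibition relative to no-compound signal.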
In general terms: In a reporter assay the amount or activity of a reporter protein is the signal.

Where [3] appears, read: EC50_3DS_NS5B, Table 2, titled Replicon assay results.

Read-outs that look alike come from different tables or passages of the source. A value given as a limit tells only on which side of the number the result lay.

For `Cc1ccc(C(=O)C2=C(O)C(=O)N(c3ccccn3)C2c2ccc(C(C)(C)C)cc2)cc1` (stereo not shown) [Example 2, 5-(4-tert-butyl-phenyl)-3-hydroxy-4-(4-methyl-benzoyl)-1-pyridin-2-yl-1,5-dihydro-pyrrol-2-one], the EC50 in assay [1] (Hepatitis C virus, 72 h) was less than 10000 nM; in assay [2] (EC50_3DS_NS5B, Table 1, 3D-SCREEN assay results, Huh-7 cells, 24 hours with compound, firefly luciferase reporter), 9000 nM.
Regarding `CC(=O)OC1=C(C(=O)c2ccc(C(C)C)cc2)C(c2ccc(OC(F)(F)F)cc2)N(c2ccc(C)nn2)C1=O` (stereo not shown) [Example 86, Acetic acid 4-(4-isopropyl-benzoyl)-1-(6-methyl-pyridazin-3-yl)-2-oxo-5-(4-trifluoromethoxy-phenyl)-2,5-dihydro-1H-pyrrol-3-yl ester], the EC50 in assay [1] (Hepatitis C virus, 72 h) is less than 1000 nM; in assay [2] (setting [3]), less than 100 nM.
For the molecule `Cc1ccc(N2C(=O)C(O)=C(C(=O)c3ccc(OC(F)(F)F)cc3)C2c2ccc(C(C)C)cc2)cn1` (stereo not shown) [Example 94, 3-hydroxy-5-(4-isopropyl-phenyl)-1-(6-methyl-pyridin-3-yl)-4-(4-trifluoromethoxy-benzoyl)-1,5-dihydro-pyrrol-2-one], the EC50 in assay [1] (Hepatitis C virus, 72 h) was less than 10000 nM; in assay [2] (setting [3]), less than 10000 nM.
As to `Cc1ccc(N2C(=O)C(O)=C(C(=O)c3ccc(OC(F)(F)F)cc3)C2c2ccc(OC(F)(F)F)cc2)nn1` (stereo not shown) [Example 96, 3-hydroxy-1-(6-methyl-pyridazin-3-yl)-4-(4-trifluoromethoxy-benzoyl)-5-(4-trifluoromethoxy-phenyl)-1,5-dihydro-pyrrol-2-one], the EC50 in assay [1] (Hepatitis C virus, 72 h) was less than 1000 nM; in assay [2] (setting [3]) it was less than 1000 nM.
Turning to `Cc1ccc(N2C(=O)C(O)=C(C(=O)c3ccc(C(C)C)cc3)C2c2ccc(C(F)(F)F)nc2)nn1` (stereo not shown) [Example 98, 3-hydroxy-4-(4-isopropyl-benzoyl)-1-(6-methyl-pyridazin-3-yl)-5-(6-trifluoromethyl-pyridin-3-yl)-1,5-dihydro-pyrrol-2-one], the EC50 in assay [1] (Hepatitis C virus, 72 h) was less than 10000 nM; in assay [2] (setting [3]), less than 10000 nM.
Regarding `Cc1ccc(N2C(=O)C(O)=C(C(=O)c3ccc(C(C)C)cc3)C2c2ccc(C(F)(F)F)cn2)nn1` (stereo not shown) [Example 106, 3-hydroxy-4-(4-isopropyl-benzoyl)-1-(6-methyl-pyridazin-3-yl)-5-(5-trifluoromethyl-pyridin-2-yl)-1,5-dihydro-pyrrol-2-one], the EC50 in assay [1] (Hepatitis C virus, 72 h) is less than 10000 nM; in assay [2] (setting [3]) it was less than 10000 nM.
On to `CCOc1ccc(C2C(C(=O)c3ccc(C(C)C)cc3)=C(O)C(=O)N2c2ccc(C)nn2)cn1` (stereo not shown) [Example 110, 5-(6-ethoxy-pyridin-3-yl)-3-hydroxy-4-(4-isopropyl-benzoyl)-1-(6-methyl-pyridazin-3-yl)-1,5-dihydro-pyrrol-2-one], for which the EC50 in assay [1] (Hepatitis C virus, 72 h) was less than 1000 nM; in assay [2] (setting [3]), less than 1000 nM.
In the case of `Cc1ccc(N2C(=O)C(O)=C(C(=O)c3ccc(C(C)C)cc3)C2c2ccc(C(C)C)cn2)nn1` (stereo not shown) [Example 111, 3-Hydroxy-4-(4-isopropyl-benzoyl)-5-(5-isopropyl-pyridin-2-yl)-1-(6-methyl-pyridazin-3-yl)-1,5-dihydro-pyrrol-2-one], the EC50 was less than 10000 nM in assay [1] (Hepatitis C virus, 72 h) and less than 10000 nM in assay [2] (setting [3]).
Take `Cc1ccc(N2C(=O)C(O)=C(C(=O)c3ccc(OC(C)C)cc3)C2c2ccc(OC(F)(F)F)cc2)nn1` (stereo not shown) [Example 115, 3-hydroxy-4-(4-isopropoxy-benzoyl)-1-(6-methyl-pyridazin-3-yl)-5-(4-trifluoromethoxy-phenyl)-1,5-dihydro-pyrrol-2-one]: the EC50 in assay [1] (Hepatitis C virus, 72 h) is less than 10000 nM; in assay [2] (setting [3]), less than 10000 nM.
In the case of `CC(C)c1ccc(C(=O)C2=C(O)C(=O)N(c3ccc(Cl)nn3)C2c2ccc(OC(F)(F)F)cc2)cc1` (stereo not shown) [Example 118, 1-(6-chloro-pyridazin-3-yl)-3-hydroxy-4-(4-isopropyl-benzoyl)-5-(4-trifluoromethoxy-phenyl)-1,5-dihydro-pyrrol-2-one], the EC50 was less than 1000 nM in assay [1] (Hepatitis C virus, 72 h) and less than 1000 nM in assay [2] (setting [3]).
On to `C#Cc1ccc(C2C(C(=O)c3ccc(C(C)C)cc3)=C(O)C(=O)N2c2ccc(C)nn2)cc1` (stereo not shown) [Example 137, 5-(4-ethynyl-phenyl)-3-hydroxy-4-(4-isopropyl-benzoyl)-1-(6-methyl-pyridazin-3-yl)-1,5-dihydro-pyrrol-2-one], for which the EC50 was less than 10000 nM in assay [1] (Hepatitis C virus, 72 h) and less than 10000 nM in assay [2] (setting [3]).
For the molecule `Cc1ccc(N2C(=O)C(NS(C)(=O)=O)=C(C(=O)c3ccc(C(C)C)cc3)C2c2ccc(OC(F)(F)F)cc2)nn1` (stereo not shown) [Example 149, N-[4-(4-isopropyl-benzoyl)-1-(6-methyl-pyridazin-3-yl)-2-oxo-5-(4-trifluoromethoxy-phenyl)-2,5-dihydro-1H-pyrrol-3-yl]-methanesulfonamide], the EC50 in assay [1] (Hepatitis C virus, 72 h) was less than 1000 nM; in assay [2] (setting [3]), less than 1000 nM.
With `CCOc1ccc(C2C(C(=O)c3ccc(C(C)C)cc3)=C(O)C(=O)N2c2ccc(C)nn2)cn1` (stereo not shown) [Example 155, 2-ethoxy-5-[4-hydroxy-3-(4-isopropyl-benzoyl)-1-(6-methyl-pyridazin-3-yl)-5-oxo-2,5-dihydro-1H-pyrrol-2-yl]-pyridinium; chloride], the EC50 was less than 1000 nM in assay [1] and less than 1000 nM in assay [2] (read-out: EC50_3DS_NS5B, Table 2, titled Replicon assay results).
Take `Cc1ccc(N2C(=O)C(O)=C(C(=O)c3ccc(C(C)C)cc3)C2c2ccc(C(C)(F)F)cc2)nn1` (stereo not shown) [Example 158, 5-[4-(1,1-difluoro-ethyl)phenyl]-3-hydroxy-4-(4-isopropyl-benzoyl)-1-(6-methyl-pyridazin-3-yl)-1,5-dihydro-pyrrol-2-one]: the EC50 in assay [1] (Hepatitis C virus, 72 h) is less than 1000 nM; in assay [2] (setting [3]), less than 100 nM.
The corresponding values for `Cc1ccc(N2C(=O)C(O)=C(C(=O)c3ccc(C(F)(F)F)cc3)C2c2ccc(OC(F)(F)F)cc2)nn1` (stereo not shown) [Example 162, 3-hydroxy-1-(6-methyl-pyridazin-3-yl)-5-(4-trifluoromethoxy-phenyl)-4-(4-trifluoromethyl-benzoyl)-1,5-dihydro-pyrrol-2-one] are less than 10000 nM and less than 1000 nM.
For `Cc1ccc(N2C(=O)C(O)=C(C(=O)c3ccc(OC(F)(F)F)cc3)C2c2ccc(OC(C)C)nc2)nn1` (stereo not shown) [Example 169, 3-hydroxy-5-(6-isopropoxy-pyridin-3-yl)-1-(6-methyl-pyridazin-3-yl)-4-(4-trifluoromethoxy-benzoyl)-1,5-dihydro-pyrrol-2-one], in that order: less than 1000 nM and less than 1000 nM.
For `CCOc1ccc([C@@H]2C(C(=O)c3ccc(C(C)C)cc3)=C(O)C(=O)N2c2ccc(C)nn2)cn1` [Example 192, 5(R)-(6-ethoxy-pyridin-3-yl)-3-hydroxy-4-(4-isopropyl-benzoyl)-1-(6-methyl-pyridazin-3-yl)-1,5-dihydro-pyrrol-2-one], in that order: less than 1000 nM and less than 1000 nM.
Turning to `Cc1ccc(N2C(=O)C(O)=C(C(=O)c3ccc(C(C)C)cc3)[C@H]2c2ccc(C(F)(F)F)nc2)nn1` [Example 195, 3-hydroxy-4-(4-isopropyl-benzoyl)-1-(6-methyl-pyridazin-3-yl)-5(R)-(6-trifluoromethyl-pyridin-3-yl)-1,5-dihydro-pyrrol-2-one], the EC50 in assay [1] (Hepatitis C virus, 72 h) was less than 1000 nM; in assay [2] (setting [3]) it was less than 1000 nM.
`Cc1ccc(N2C(=O)C(O)=C(C(=O)c3ccc(C(C)C)cc3)[C@H]2c2ccc(C(C)(F)F)cc2)nn1` [Example 196, 5(R)-[4-(1,1-difluoro-ethyl)-phenyl]-3-hydroxy-4-(4-isopropyl-benzoyl)-1-(6-methyl-pyridazin-3-yl)-1,5-dihydro-pyrrol-2-one]: the EC50 in assay [1] (Hepatitis C virus, 72 h) is less than 1000 nM; in assay [2] (setting [3]) it was less than 1000 nM.
Consider `Cc1ccc(N2C(=O)C(NS(C)(=O)=O)=C(C(=O)c3ccc(C(C)C)cc3)[C@H]2c2ccc(OC(F)(F)F)cc2)nn1` [Example 198, N-[4-(4-isopropyl-benzoyl)-1-(6-methyl-pyridazin-3-yl)-2-oxo-5(R)-(4-trifluoromethoxy-phenyl)-2,5-dihydro-1H-pyrrol-3-yl]-methanesulfonamide], for which the EC50 in assay [1] (Hepatitis C virus, 72 h) is less than 1000 nM; in assay [2] (setting [3]), less than 1000 nM.
